Reference: US10174065B2, “Antidiabetic enolic glucoside of phenylpyruvic acid” (ZADEC APS, priority 2010, dated 2019)

What was measured:
gene expression in liver = assay: Quantitative real-time PCR gene expression in liver of obese, insulin resistant Wistar rats; assay type: in vivo
Protocol: (§1) Three week old male rats were fed a high fat diet for 24 weeks to induce obesity and insulin resistance. Thereafter, rats were treated with 0.3 mg/kg Rx-1 daily for two weeks, and then with 3 mg/kg Rx-1 daily for seven days. Fasting glucose concentrations were measured before treatment, after two weeks treatment with 0.3 mg/kg Rx-1 and then again after seven days treatment with 3 mg/kg Rx-1. After treatment with 3 mg/kg Rx-1 rats were terminated and liver, muscle and pancreas biopsies were taken. Quantitative real-time PCR was used to measure the expression of 12 genes in liver and muscle samples, and ten genes in pancreas samples.
(§2) Rats were housed at the Primate Unit (Medical Research Council, South Africa). Rat management including feeding, glucose measurements and terminations, were done according to standard operating procedures (Diabetes Discovery Platform, Medical Research Council). Briefly, three week old rats were fed a high fat diet for 24 weeks to induce T2D. The study group consisted of thirteen rats, eight rats were treated by daily gavage with 0.3 mg/kg Rx-1 for two weeks, and then with 3 mg/kg Rx-1 for seven days. Five rats were used as controls and were treated with water only for three weeks. Rats were terminated after treatment and liver, muscle and pancreas tissue harvested and stored in RNalater (Ambion) as recommended by the manufacturer. The study was approved by the ethics committee of the Medical Research Council of South Africa.
Tissue was removed from RNAlater, weighed (80-100 mg), and placed in a 2 ml microfuge tube containing 1 ml of Trizol (Invitrogen) and a stainless steel bead (Qiagen). Tissue was homogenised in the TissueLyser (Qiagen) at 25 Hz for 6 min, centrifuged at 12,000 g for 10 min at 4° C., and the supernatant removed and incubated at room temperature for 5 min. Thereafter, 0.2 ml of chloroform (Sigma) was added, shaken vigorously for 15 sec, and then incubated at room temperature for 3 min with occasional mixing. Samples were centrifuged 12,000 g for 15 min at 4° C. and the aqueous phase was transferred to a new tube. RNA was precipitated by adding 0.5 ml isopropanol, mixed well for 30 sec, and placed at −20° C. overnight. The following day, tubes were centrifuged at 12,000 g for 20 min at 4° C. The pellet was washed with 1 ml of 75% ethanol and centrifuged at 12,000 g for 15 min at 4° C. The wash step was repeated. After the second wash, the pellet was air dried by placing tubes with their lids open (on ice) in a PCR cabinet for 2 hours. Excess liquid was removed by blotting tubes on paper towel occasionally during this incubation. The pellet was resuspended by adding 100 μl RNase-free water and incubating at 55° C. for 10 min. RNA concentrations were determined using a spectrophotometer (Nanodrop Technologies). Thereafter, RNA was purified with the RNeasy Mini Kit according to the manufacturer's instructions (Qiagen) and concentrations again determined with the Nanodrop. Genomic DNA was removed by treating RNA with Turbo DNA-free DNase (Ambion) and incubating at 37° C. for 90 min according to the manufacturer's instructions, but using 1.5× the units of DNase and incubation time recommended by the kit. In brief, 20 μg RNA was incubated with 1.5 μl (3 units) DNase, 5 μl DNase buffer, and nuclease-free water in a final reaction volume of 50 μl for 45 min at 37° C., thereafter, another 3 units of DNase was added and incubated for a further 45 min. DNase was inactivated by adding ⅕ volume (10 μl) of the DNase inactivation reagent supplied with the kit. Reactions were incubated at room temperature for 2 min, and centrifuged at 14,000 rpm for 1.5 min. The supernatant was removed and RNA concentrations were measured using the Nanodrop. The quality of the DNase-treated RNA was determined with the RNA 6000 Nano kit using the 2100 Bioanalyser Lab-on-a-Chip system as recommended by the manufacturers (Agilent technologies). […]

[1] = test system: gene expression in muscle; assay: Quantitative real-time PCR gene expression in muscle of obese, insulin resistant Wistar rats; assay type: in vivo
Protocol: as §1, §2
RNA extracted from liver, muscle and pancreas tissue was converted to cDNA using the High Capacity Reverse Transcription kit as recommended by the manufacturers (Applied Biosystems). In brief, 2 μg of DNase-treated RNA was added to nuclease-free water in a volume of 10 μl. Thereafter, 2 μl reaction buffer, 0.8 μl dNTPs, 2 μl random primers, 1 μl RNase-inhibitor, 1 μl reverse transcriptase, and 3.2 μl nuclease-free water were added. The same reaction without the reverse transcription enzyme (minus RT reaction) was set-up to investigate genomic DNA contamination. Reactions were incubated at 25° C. for 10 min, 37° C. for 120 min, and 85° C. for 5 s to inactivate the reverse transcriptase. cDNA samples were stored at −20° C. until expression analysis.
For analysis of gene expression, 25 ng of cDNA prepared from liver, muscle and pancreas was mixed with 12.5 μl Taqman universal PCR master mix (Applied Biosystems), 1.25 μl gene-specific primer and probe mixtures (predeveloped Taqman gene expression assays, Applied Biosystems), and H2O in a final volume of 25 μl. The suffix _m represents an assay whose probe spans an exon-exon junction of the associated gene and therefore will not detect genomic DNA, while the suffix _s represents an assay whose primers and probes are designed within a single exon, such assays will detect genomic DNA.
The PCR reactions were conducted on the ABI 7500 Sequence Detection System Instrument (Applied Biosystems) using universal cycling conditions as described before. All samples were run in duplicate. Data generated on the ABI 7500 Instrument were analysed with the ABI Relative Quantitation (RQ) software (SDS V1.4) using a Ct threshold of 0.1. Relative expression levels were determined by using the 2^−ΔΔCt method, where ΔΔCt=(Ctgene studied−Cthousekeeping gene)treated−(Ctgene studied−Cthousekeeping gene)control. The gene expression was normalised to housekeeping genes to correct for differences in cDNA loading. Two gene expression assays, β-actin (ActB) and glyceraldehyde-3-phosphate dehydrogenase (Gapdh) (Table 1) were used as endogenous controls. Relative gene expression data generated by the RQ software for each of the two endogenous controls individually or the data normalised to the average of the two endogenous controls were imported into Microsoft Excel and analysed. […]

[2] = liver, 0.3 mg/kg two weeks then 3 mg/kg seven days
[3] = liver, not statistically significant

## O=C(O)/C(=C/c1ccccc1)O[C@@H]1O[C@H](CO)[C@@H](O)[C@H](O)[C@H]1O [RX-1, 3-Phenyl-2-(3,4,5-trihydroxy-6-hydroxymethyl-tetrahydro-pyran-2-yloxy)-acrylic acid]
Gene expression in liver; liver only, not significant
  Pi3k expression: upregulated
Gene expression in liver; liver, 0.3 mg/kg daily two weeks then 3 mg/kg daily seven days, not statistically significant
  Gck gene expression: increased
Gene expression in liver; [2]
  Glut1 expression: increased
  Glut2 expression: increased
  IR gene expression: upregulated
  IRS1 mRNA levels: unchanged
  IRS2 gene expression: increased
  PPARα expression: significantly upregulated
Gene expression in liver; [3]
  GcgR gene expression: increased
  SOCS1 mRNA expression: increased
Gene expression in liver; liver, statistically significant
  SOCS3 mRNA expression: increased
[1]
  Gck mRNA levels: decreased
  Glut4 mRNA levels: unaffected
  IR gene expression: did not affect
  IRS1 mRNA levels: unchanged
  IRS2 mRNA levels: unchanged
[1]; not statistically significant
  GcgR gene expression: increased
  SOCS1 mRNA expression: increased
  SOCS3 mRNA expression: increased
